Test results taken from article PMC11326893, “A comprehensive measure of Golgi sphingolipid flux using NBD C6-ceramide: evaluation of sphingolipid inhibitors” (Journal of Lipid Research, 2024).
Each block holds one compound with its values, some of them ahead of it.

What was measured:
ceramide kinase (CERK) [1] = molecular target: T1, ceramide kinase (CERK) (Homo sapiens, UniProt Q8TCT0); experiment: NBD-C6-ceramide to NBD-C1P conversion (HPLC, fluorescence) in MCF7 cells overexpressing CERK; assay type: cell-based
T1 sequence (Q8TCT0 1-537): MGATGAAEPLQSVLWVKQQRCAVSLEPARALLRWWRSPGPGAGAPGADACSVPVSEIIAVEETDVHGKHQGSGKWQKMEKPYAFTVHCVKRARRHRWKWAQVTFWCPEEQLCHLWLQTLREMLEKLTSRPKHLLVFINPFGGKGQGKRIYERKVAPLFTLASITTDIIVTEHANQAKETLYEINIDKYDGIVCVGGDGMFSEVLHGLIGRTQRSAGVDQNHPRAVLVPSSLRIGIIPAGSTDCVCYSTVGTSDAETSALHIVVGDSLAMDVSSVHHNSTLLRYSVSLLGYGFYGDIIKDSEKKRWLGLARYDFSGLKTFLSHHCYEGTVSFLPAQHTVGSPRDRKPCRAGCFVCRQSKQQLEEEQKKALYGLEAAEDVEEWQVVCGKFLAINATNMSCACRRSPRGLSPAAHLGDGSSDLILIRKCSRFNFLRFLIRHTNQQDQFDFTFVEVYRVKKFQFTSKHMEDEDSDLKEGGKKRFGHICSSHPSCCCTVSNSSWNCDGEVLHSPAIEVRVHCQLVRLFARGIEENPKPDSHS

ceramide kinase (CERK) [2] = molecular target: T1, ceramide kinase (CERK); experiment: in vitro activity assay with purified recombinant CERK, NBD-C6-Cer substrate; only about […] decrease at […]; assay type: biochemical; design: full-length human CERK; conditions: read-out: % decrease in activity at 50 μM and 100 μM
[3] = molecular target: T2, glucosylceramide synthase (GCS) (Homo sapiens, UniProt Q16739); experiment: NBD-C6-ceramide to NBD-HexCer conversion in MCF7 cells, […] eliglustat; assay type: cell-based
T2 construct: gene UGCG
T2 sequence (Q16739 1-394): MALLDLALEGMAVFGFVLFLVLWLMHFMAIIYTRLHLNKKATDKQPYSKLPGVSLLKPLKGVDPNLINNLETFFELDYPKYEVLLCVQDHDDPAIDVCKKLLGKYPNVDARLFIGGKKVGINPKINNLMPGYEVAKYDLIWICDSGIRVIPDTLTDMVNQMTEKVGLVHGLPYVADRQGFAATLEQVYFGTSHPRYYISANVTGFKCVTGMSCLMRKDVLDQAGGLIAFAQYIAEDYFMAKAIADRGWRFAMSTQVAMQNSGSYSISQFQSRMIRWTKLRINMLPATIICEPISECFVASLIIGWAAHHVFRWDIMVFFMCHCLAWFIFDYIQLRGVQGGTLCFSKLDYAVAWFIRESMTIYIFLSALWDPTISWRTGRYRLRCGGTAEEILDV

IC50 (ceramide kinase (CERK) [1]): < 10 nM
SMILES: O=C(Nc1nc2ccc(NC(=O)C34CC5CC(CC(C5)C3)C4)cc2s1)c1ccccc1 [NVP-231]

inhibition at 50 µM (ceramide kinase (CERK) [2]): 20%
SMILES: CCCCCCCCCC(=O)NC(CN1CCOCC1)C(O)c1ccccc1 (stereo not drawn) [PDMP, 1-phenyl-2-decanoylamino-3-morpholino-1-propanol]

SMILES: CCCCCCCC(=O)N[C@H](CN1CCCC1)[C@H](O)c1ccc2c(c1)OCCO2 [eliglustat]
NBD-C6-ceramide to NBD-HexCer conversion in MCF7 cells, 50 nM eliglustat [3]: Inhibition with eliglustat and PDMP both nearly eliminated the production of NBD-C6-HexCer
